From PubChem BioAssay (NCI)
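1) Cells in 96-well plates. 2) Compound, 48 h, 5 concentrations. 3) Linear interpolation between surrounding doses. 4) Unreached endpoint = highest concentration. Abbreviation: GI50, concentration required for 50% inhibition of growth. TGI: total growth inhibition.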

Key:
Experiment in all cases: NCI-60 cell line screen, 48 h
HT29 colon = system: HT29 colon
K-562 leukemia = system: K-562 leukemia
NCI-H460 lung = system: NCI-H460 lung
NCI-H522 lung = system: NCI-H522 lung
SN12C renal = system: SN12C renal
SW-620 colon = system: SW-620 colon
TK-10 renal = system: TK-10 renal
UACC-257 melanoma = system: UACC-257 melanoma
KM12 colon = system: KM12 colon
MOLT-4 leukemia = system: MOLT-4 leukemia

CCCCn1c(=O)[nH]c2c(N)ncnc21
TGI (HT29 colon): > 100 µM | TGI (K-562 leukemia): > 100 µM | TGI (NCI-H460 lung): > 100 µM | TGI (NCI-H522 lung): > 100 µM | TGI (SN12C renal): > 100 µM | TGI (SW-620 colon): > 100 µM | TGI (TK-10 renal): > 100 µM | TGI (UACC-257 melanoma): > 100 µM

C/C(Cc1ccc2c(c1)OCO2)=N\N=c1\sc2ccccc2n1C
TGI (HT29 colon): > 100 µM | TGI (K-562 leukemia): > 100 µM | TGI (KM12 colon): > 100 µM | TGI (MOLT-4 leukemia): > 100 µM | TGI (NCI-H522 lung): > 100 µM | TGI (SN12C renal): > 100 µM | TGI (SW-620 colon): > 100 µM | TGI (TK-10 renal): > 100 µM | TGI (UACC-257 melanoma): > 100 µM

O=[N+]([O-])c1ccc(C[P+]2(c3ccccc3)CCCCC2)cc1 (tested in a mixture with another compound)
TGI (K-562 leukemia): > 100 µM | TGI (KM12 colon): > 100 µM | TGI (MOLT-4 leukemia): > 100 µM | TGI (NCI-H460 lung): > 100 µM | TGI (SN12C renal): > 100 µM | TGI (SW-620 colon): > 100 µM | TGI (TK-10 renal): > 100 µM | TGI (UACC-257 melanoma): > 100 µM

COC(=O)c1csc(-c2csc(CCNC(=O)OC(C)(C)C)n2)n1
TGI (HT29 colon): > 100 µM | TGI (K-562 leukemia): > 100 µM | TGI (KM12 colon): > 100 µM | TGI (MOLT-4 leukemia): > 100 µM | TGI (NCI-H460 lung): > 100 µM | TGI (SN12C renal): > 100 µM | TGI (SW-620 colon): > 100 µM | TGI (TK-10 renal): > 100 µM | TGI (UACC-257 melanoma): > 100 µM

Cc1cn(S(=O)(=O)c2ccccc2)c2c(OCc3ccccc3)cc([N+](=O)[O-])cc12
TGI (HT29 colon): > 100 µM | TGI (K-562 leukemia): > 100 µM | TGI (KM12 colon): > 100 µM | TGI (MOLT-4 leukemia): > 100 µM | TGI (NCI-H460 lung): > 100 µM | TGI (NCI-H522 lung): > 100 µM | TGI (SN12C renal): > 100 µM | TGI (SW-620 colon): > 100 µM | TGI (TK-10 renal): > 100 µM | TGI (UACC-257 melanoma): > 100 µM

O=C(Cn1c2ccc(Br)cc2c2nc3ccccc3nc21)NCc1ccccc1
TGI (HT29 colon): > 100 µM | TGI (K-562 leukemia): > 100 µM | TGI (KM12 colon): > 100 µM | TGI (MOLT-4 leukemia): > 100 µM | TGI (NCI-H460 lung): > 100 µM | TGI (SN12C renal): > 100 µM | TGI (SW-620 colon): > 100 µM | TGI (TK-10 renal): 49.5 µM | TGI (UACC-257 melanoma): > 100 µM

Cc1cc(=O)[nH]c2cc(NC(=O)C(C)NC(=O)C(C)NC(=O)C(C)NC(=O)OC(C)(C)C)ccc12 (stereo not given)
TGI (HT29 colon): > 15 µM | TGI (K-562 leukemia): > 15 µM | TGI (KM12 colon): > 15 µM | TGI (MOLT-4 leukemia): > 15 µM | TGI (NCI-H460 lung): > 15 µM | TGI (NCI-H522 lung): > 15 µM | TGI (SN12C renal): > 15 µM | TGI (SW-620 colon): > 15 µM | TGI (TK-10 renal): > 15 µM | TGI (UACC-257 melanoma): > 15 µM

CCN(CC)Cc1cc(N=Nc2c(O)ccc3c(N=Nc4ccc(O)c(CN(CC)CC)c4)c(O)ccc23)ccc1O
TGI (HT29 colon): 9.31 µM | TGI (K-562 leukemia): > 36.3 µM | TGI (KM12 colon): > 21.9 µM | TGI (MOLT-4 leukemia): 12.1 µM | TGI (NCI-H460 lung): 7.54 µM | TGI (NCI-H522 lung): 10.3 µM | TGI (SN12C renal): 17.6 µM | TGI (SW-620 colon): 15.2 µM | TGI (TK-10 renal): 18.8 µM | TGI (UACC-257 melanoma): 16.5 µM

N=c1oc2cc(O)ccc2cc1C(=O)Nc1ccccn1
TGI (HT29 colon): > 100 µM | TGI (K-562 leukemia): > 100 µM | TGI (KM12 colon): > 100 µM | TGI (MOLT-4 leukemia): > 100 µM | TGI (NCI-H460 lung): > 100 µM | TGI (NCI-H522 lung): 13 µM | TGI (SN12C renal): > 100 µM | TGI (SW-620 colon): > 100 µM | TGI (TK-10 renal): > 100 µM | TGI (UACC-257 melanoma): > 100 µM

CCN(CC)CCC(=O)/C=C/c1ccc(Cl)c(Cl)c1
TGI (K-562 leukemia): > 10 µM | TGI (KM12 colon): > 10 µM | TGI (MOLT-4 leukemia): > 10 µM | TGI (NCI-H460 lung): > 10 µM | TGI (NCI-H522 lung): 3.54 µM | TGI (SN12C renal): 4.24 µM | TGI (SW-620 colon): 5.63 µM | TGI (TK-10 renal): 9.98 µM | TGI (UACC-257 melanoma): > 10 µM

COc1cc(/C=C/C(=O)CC(=O)/C=C/c2cc(C)c(O)c(OC)c2)cc(C)c1O
TGI (HT29 colon): > 100 µM | TGI (K-562 leukemia): > 100 µM | TGI (KM12 colon): > 100 µM | TGI (MOLT-4 leukemia): > 100 µM | TGI (NCI-H460 lung): > 100 µM | TGI (NCI-H522 lung): > 100 µM | TGI (SN12C renal): > 100 µM | TGI (SW-620 colon): > 100 µM | TGI (UACC-257 melanoma): > 100 µM

O=C1CCCC2=C1CC1=C(CCCC1=O)N2c1ccc(Cl)cc1
TGI (HT29 colon): > 100 µM | TGI (K-562 leukemia): > 100 µM | TGI (KM12 colon): > 100 µM | TGI (MOLT-4 leukemia): > 100 µM | TGI (NCI-H460 lung): > 100 µM | TGI (SN12C renal): > 100 µM | TGI (SW-620 colon): > 100 µM | TGI (TK-10 renal): > 100 µM | TGI (UACC-257 melanoma): > 100 µM

CCC1(CC)C(=O)NC(=O)NC1=S
TGI (HT29 colon): > 100 µM | TGI (K-562 leukemia): > 100 µM | TGI (MOLT-4 leukemia): > 100 µM | TGI (NCI-H460 lung): > 100 µM | TGI (NCI-H522 lung): > 100 µM | TGI (SN12C renal): > 100 µM | TGI (SW-620 colon): > 100 µM | TGI (TK-10 renal): > 100 µM | TGI (UACC-257 melanoma): > 100 µM

COc1ccc(C2=C(OC(C)=O)c3cccn3-c3ccc(Cl)cc3S2)cc1
TGI (HT29 colon): > 10 µM | TGI (K-562 leukemia): 5.69 µM | TGI (KM12 colon): 9.75 µM | TGI (MOLT-4 leukemia): 7.47 µM | TGI (SN12C renal): > 10 µM | TGI (SW-620 colon): > 10 µM | TGI (TK-10 renal): > 10 µM | TGI (UACC-257 melanoma): > 10 µM

CN(C)N1C(=O)C(=O)N(c2cccc3ccccc23)C1=O
TGI (HT29 colon): > 10 µM | TGI (K-562 leukemia): > 10 µM | TGI (KM12 colon): > 10 µM | TGI (MOLT-4 leukemia): > 10 µM | TGI (NCI-H460 lung): > 10 µM | TGI (NCI-H522 lung): > 10 µM | TGI (SN12C renal): > 10 µM | TGI (SW-620 colon): > 10 µM | TGI (TK-10 renal): > 10 µM

CC1=C(C)C(=O)OC(C(C)(O)C2(O)CC3OC34C3CC(O)C56OC5C=CC(=O)C6(C)C3CCC42C)C1 (stereo not given)
TGI (HT29 colon): 4.2 µM | TGI (K-562 leukemia): > 100 µM | TGI (KM12 colon): 7.54 µM | TGI (MOLT-4 leukemia): 4.49 µM | TGI (NCI-H460 lung): 4.23 µM | TGI (NCI-H522 lung): 1.97 µM | TGI (SN12C renal): 14.4 µM | TGI (TK-10 renal): 7.43 µM | TGI (UACC-257 melanoma): 4.7 µM

O=C1c2c(c3c4cc(F)ccc4oc3c3[nH]c4ccccc4c23)C(=O)N1O
GI50 (HT29 colon): 3.06 µM | TGI (HT29 colon): > 100 µM | GI50 (K-562 leukemia): 2.09 µM | TGI (K-562 leukemia): > 100 µM | GI50 (KM12 colon): 3.33 µM | TGI (KM12 colon): > 100 µM | GI50 (NCI-H460 lung): 0.565 µM | TGI (NCI-H460 lung): 10.6 µM | GI50 (NCI-H522 lung): 0.53 µM | TGI (NCI-H522 lung): 5.41 µM | GI50 (SW-620 colon): 1.24 µM | TGI (SW-620 colon): > 100 µM | GI50 (TK-10 renal): 12 µM | TGI (TK-10 renal): 53.4 µM | GI50 (UACC-257 melanoma): 2.31 µM | TGI (UACC-257 melanoma): 6.68 µM

O=C1OC(C(O)CO)C(C(O)CO)OC1=O (stereo not given)
TGI (HT29 colon): > 10 µM | TGI (K-562 leukemia): > 10 µM | TGI (KM12 colon): > 10 µM | TGI (MOLT-4 leukemia): > 10 µM | TGI (NCI-H460 lung): > 10 µM | TGI (SN12C renal): > 10 µM | TGI (SW-620 colon): > 10 µM | TGI (TK-10 renal): > 10 µM | TGI (UACC-257 melanoma): > 10 µM

O=c1c(NCc2ccccc2)c(C2(c3ccccc3F)SCCCS2)c1=O
TGI (HT29 colon): > 100 µM | TGI (KM12 colon): > 100 µM | TGI (MOLT-4 leukemia): > 100 µM | TGI (NCI-H460 lung): > 100 µM | TGI (NCI-H522 lung): > 100 µM | TGI (SN12C renal): > 100 µM | TGI (SW-620 colon): > 100 µM | TGI (TK-10 renal): > 100 µM | TGI (UACC-257 melanoma): > 100 µM

CCC1c2[nH]c3ccccc3c2C[C@H]2C(=O)NC(C)C(=O)N12 (stereo not given in full)
TGI (HT29 colon): > 100 µM | TGI (K-562 leukemia): > 100 µM | TGI (KM12 colon): > 100 µM | TGI (MOLT-4 leukemia): > 100 µM | TGI (NCI-H522 lung): > 100 µM | TGI (SN12C renal): > 100 µM | TGI (SW-620 colon): > 100 µM | TGI (TK-10 renal): > 100 µM | TGI (UACC-257 melanoma): > 100 µM

Nc1nnc(N)n1N
TGI (HT29 colon): > 100 µM | TGI (K-562 leukemia): > 100 µM | TGI (KM12 colon): > 100 µM | TGI (MOLT-4 leukemia): > 100 µM | TGI (NCI-H460 lung): > 100 µM | TGI (NCI-H522 lung): > 100 µM | TGI (SW-620 colon): > 100 µM | TGI (TK-10 renal): > 100 µM | TGI (UACC-257 melanoma): > 100 µM

CCC(C)C(Nc1c2ccccc2nc2c(C(=O)NCCN(C)C)cccc12)C(=O)O (stereo not given)
TGI (HT29 colon): 17.1 µM | TGI (K-562 leukemia): > 100 µM | TGI (KM12 colon): > 100 µM | TGI (MOLT-4 leukemia): > 100 µM | TGI (NCI-H522 lung): 56.8 µM | TGI (SN12C renal): > 100 µM | TGI (SW-620 colon): > 100 µM | TGI (TK-10 renal): > 100 µM
